Measured values as given in ChEMBL document CHEMBL1201862, “PubChem BioAssay data set” (2004).
Activity calls are given as the source filed them.

What was measured:
[1] = biological target: T1, Dual specificity protein phosphatase 3 (Homo sapiens, UniProt P51452); assay: VHR1 phosphatase inhibitors, primary screen, biochemical, absorbance, uHTS (AID 1654)
[2] = biological target: T1, Dual specificity protein phosphatase 3; assay: VHR1 phosphatase inhibitors, biochemical (AID 1878)
[3] = biological target: T2, Dual specificity protein phosphatase 6 (Rattus norvegicus, UniProt Q64346); assay: MKP-3 phosphatase inhibitors, primary screen, biochemical, rat enzyme, in vitro (AID 425)
T2 sequence (Q64346 whole entry): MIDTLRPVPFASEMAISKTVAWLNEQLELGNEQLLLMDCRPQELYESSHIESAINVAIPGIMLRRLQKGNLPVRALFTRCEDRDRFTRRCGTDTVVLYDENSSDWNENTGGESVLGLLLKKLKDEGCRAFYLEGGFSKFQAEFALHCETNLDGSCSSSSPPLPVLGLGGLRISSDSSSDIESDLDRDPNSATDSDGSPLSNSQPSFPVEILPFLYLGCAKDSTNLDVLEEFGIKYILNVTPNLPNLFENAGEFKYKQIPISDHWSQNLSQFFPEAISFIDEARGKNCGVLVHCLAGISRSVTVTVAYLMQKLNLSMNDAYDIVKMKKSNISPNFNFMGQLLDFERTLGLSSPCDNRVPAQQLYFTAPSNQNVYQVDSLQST

Vero = Vero cell cytotoxicity, cytotoxicity control for flavivirus capping enzyme inhibitors (AID 588742); type: functional; details: Chlorocebus sabaeus
Genome polyprotein = Genome polyprotein (dengue virus type 2, UniProt P29990); assay: Dengue-2 NS5 methyltransferase inhibitors, primary screen, biochemical, confirmation dose response (AID 588689); type: functional
[4] = biological target: T3, Carboxy-terminal domain RNA polymerase II polypeptide A small phosphatase 1 (Homo sapiens, UniProt Q9GZU7); assay: inhibitors of CTDSP1, concentration-response testing, biochemical assay, absorbance-based, actives from ultra-high-throughput screening (AID 540297); type: functional
T3 sequence (Q9GZU7 whole entry): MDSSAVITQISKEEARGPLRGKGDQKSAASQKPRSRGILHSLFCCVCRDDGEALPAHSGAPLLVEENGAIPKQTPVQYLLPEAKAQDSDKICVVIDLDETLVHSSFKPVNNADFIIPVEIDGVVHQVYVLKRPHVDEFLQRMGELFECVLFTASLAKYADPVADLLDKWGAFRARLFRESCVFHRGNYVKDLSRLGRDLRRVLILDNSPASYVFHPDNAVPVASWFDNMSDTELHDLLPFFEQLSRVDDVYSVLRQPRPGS

[5] = biological target: T4, Small ubiquitin-related modifier 1 (Homo sapiens, UniProt P63165); assay: inhibitors of SUMO1 peptide binding, dose response, biochemical, fluorescence polarization, uHTS hits (AID 624382); type: functional; details: read-out: IC50_Mean
[6] = biological target: T4, Small ubiquitin-related modifier 1; assay: inhibitors of SUMO1 partner interactions, dose response, biochemical, FRET (AID 624383); type: functional; details: read-out: IC50_Mean
[7] = ARNT/TACC3 interaction disruptors, potency, confirmation, biochemical, AlphaScreen, cherry-picked samples (AID 651703); type: functional, Homo sapiens;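 further: His-tagged ARNT PAS-B domain paired with GST-TACC3 E629A dimer coactivator fragment; potency of inhibitors that break up the complex and lower AlphaScreen signal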
Exodeoxyribonuclease V = Exodeoxyribonuclease V (Escherichia coli (strain K12), UniProt P04993+P07648+P08394); assay: E. coli RecBCD inhibitors, dose response, counter-screen for AddAB inhibitor project, absorbance, V66 E. coli, mutant T4 phage (AID 492957); type: functional, cell-based, Escherichia coli str. K-12 substr. MG1655
[8] = Counterscreen for AddAB inhibitors: absorbance-based bacterial cell-based high throughput dose response assay for inhibitors of bacterial viability. [Related pubchem assays (depositor defined):AID435030, AID449728, AID449731, AID488942, AID488955, AID488956]; type: functional
HEK293 [9] = assay: NOD1 signaling inhibitors, primary screen, cell-based, luminescence, uHTS (AID 1578); type: functional; details: Homo sapiens
HEK293 [10] = assay: cells; type: functional, cell-based; details: Homo sapiens
HEK293 [11] = assay: cells; type: functional, cell-based; details: Homo sapiens; remark: listed apart in the source
[12] = biological target: Luciferin 4-monooxygenase (Photinus pyralis, UniProt P08659); assay: firefly luciferase enzyme inhibitors, dose response, biochemical, luminescence (AID 1891)
[13] = Luminescence Cell-Based Dose Confirmation HTS to Identify Inhibitors of Platelet Dense Granule Release. [Related pubchem assays: 1663 (Primary HTS), 1678 (Summary of Project)]; type: functional
[14] = biological target: Nucleotide-binding oligomerization domain-containing protein 2 (Homo sapiens, UniProt Q9HC29); assay: NOD2 signaling inhibitors, cell-based, luminescence, uHTS, HEK293 (AID 1566); type: functional
HEK293 [15] = assay: NOD2 signaling inhibitors in MDP-stimulated cells, cell-based, uHTS, luminescence (AID 2001); type: functional; details: Homo sapiens
HEK293 [16] = assay: cells; type: functional, cell-based; details: Homo sapiens; remark: listed apart in the source
[17] = Shn3 3'UTR reporter inhibitors, dose response, cell-based, Clone20 osteoblasts, firefly luciferase, cherry-picked (AID 624132); type: functional;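 further: firefly luciferase luminescence from reporter carrying the Shn3 3'UTR in osteoblasts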
[18] = HepG2 cell cytotoxicity, dose response, cytotoxicity control for Shn3 inhibitor project, CellTiter-Glo, cherry-picked (AID 624134); type: functional, cell-based
[19] = control 3'UTR Renilla luciferase suppression, dose response, counter-screen for Shn3 inhibitor project, cell-based, Clone20-Shn3RL, cherry-picked (AID 624133); type: functional
[20] = biological target: T5, G-protein coupled receptor 55 (Homo sapiens, UniProt Q9Y2T6); assay: GPR55 antagonists, SAR follow-up, counter-screen for GPR35 antagonist project, imaging, image-based (AID 2397); type: functional
Cannabinoid receptor 2 [21] = biological target: T6, Cannabinoid receptor 2 (Homo sapiens, UniProt P34972); assay: SAR analysis of antagonists of the Cannabinoid Receptor 2 using an Image-Based Assay - Set 2. [Related pubchem assays (depositor defined):AID1961, AID1965]; type: functional
Cannabinoid receptor 2 [22] = biological target: T6, Cannabinoid receptor 2; assay: SAR analysis of agonists of the Cannabinoid Receptor 2 using an Image-Based Assay - Set 2. [Related pubchem assays (depositor defined):AID1961, AID1965]; type: functional
[23] = biological target: T5, G-protein coupled receptor 55; assay: SAR analysis of selective Agonists of GPR55 using an Image-Based Assay. [Related pubchem assays (depositor defined):AID1961, AID1965]; type: functional
Cannabinoid receptor 1 = Cannabinoid receptor 1 (Homo sapiens, UniProt P21554); assay: SAR analysis of antagonists of the Cannabinoid Receptor 1 using an Image-Based Assay. [Related pubchem assays (depositor defined):AID1961, AID1965]; type: functional
Cannabinoid receptor 1, sequence (P21554 whole entry): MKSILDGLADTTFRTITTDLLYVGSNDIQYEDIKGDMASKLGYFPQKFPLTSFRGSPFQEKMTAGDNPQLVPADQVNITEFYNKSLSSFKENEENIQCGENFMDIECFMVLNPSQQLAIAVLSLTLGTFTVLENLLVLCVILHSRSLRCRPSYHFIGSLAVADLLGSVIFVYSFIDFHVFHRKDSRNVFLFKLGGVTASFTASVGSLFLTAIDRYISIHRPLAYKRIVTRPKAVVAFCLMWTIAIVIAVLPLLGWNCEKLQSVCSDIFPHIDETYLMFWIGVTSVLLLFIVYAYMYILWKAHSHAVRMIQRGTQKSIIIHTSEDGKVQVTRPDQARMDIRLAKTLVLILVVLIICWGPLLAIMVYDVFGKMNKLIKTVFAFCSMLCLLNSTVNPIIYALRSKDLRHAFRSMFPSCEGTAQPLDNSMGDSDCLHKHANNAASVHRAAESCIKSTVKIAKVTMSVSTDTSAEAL

T1 sequence (P51452 whole entry): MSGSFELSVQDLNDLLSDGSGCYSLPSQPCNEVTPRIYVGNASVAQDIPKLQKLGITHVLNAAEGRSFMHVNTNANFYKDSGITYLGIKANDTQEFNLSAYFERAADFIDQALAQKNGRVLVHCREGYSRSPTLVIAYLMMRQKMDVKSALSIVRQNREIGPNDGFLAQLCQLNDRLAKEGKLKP
Nucleotide-binding oligomerization domain-containing protein 2, sequence (Q9HC29 whole entry, the tested form may be a part): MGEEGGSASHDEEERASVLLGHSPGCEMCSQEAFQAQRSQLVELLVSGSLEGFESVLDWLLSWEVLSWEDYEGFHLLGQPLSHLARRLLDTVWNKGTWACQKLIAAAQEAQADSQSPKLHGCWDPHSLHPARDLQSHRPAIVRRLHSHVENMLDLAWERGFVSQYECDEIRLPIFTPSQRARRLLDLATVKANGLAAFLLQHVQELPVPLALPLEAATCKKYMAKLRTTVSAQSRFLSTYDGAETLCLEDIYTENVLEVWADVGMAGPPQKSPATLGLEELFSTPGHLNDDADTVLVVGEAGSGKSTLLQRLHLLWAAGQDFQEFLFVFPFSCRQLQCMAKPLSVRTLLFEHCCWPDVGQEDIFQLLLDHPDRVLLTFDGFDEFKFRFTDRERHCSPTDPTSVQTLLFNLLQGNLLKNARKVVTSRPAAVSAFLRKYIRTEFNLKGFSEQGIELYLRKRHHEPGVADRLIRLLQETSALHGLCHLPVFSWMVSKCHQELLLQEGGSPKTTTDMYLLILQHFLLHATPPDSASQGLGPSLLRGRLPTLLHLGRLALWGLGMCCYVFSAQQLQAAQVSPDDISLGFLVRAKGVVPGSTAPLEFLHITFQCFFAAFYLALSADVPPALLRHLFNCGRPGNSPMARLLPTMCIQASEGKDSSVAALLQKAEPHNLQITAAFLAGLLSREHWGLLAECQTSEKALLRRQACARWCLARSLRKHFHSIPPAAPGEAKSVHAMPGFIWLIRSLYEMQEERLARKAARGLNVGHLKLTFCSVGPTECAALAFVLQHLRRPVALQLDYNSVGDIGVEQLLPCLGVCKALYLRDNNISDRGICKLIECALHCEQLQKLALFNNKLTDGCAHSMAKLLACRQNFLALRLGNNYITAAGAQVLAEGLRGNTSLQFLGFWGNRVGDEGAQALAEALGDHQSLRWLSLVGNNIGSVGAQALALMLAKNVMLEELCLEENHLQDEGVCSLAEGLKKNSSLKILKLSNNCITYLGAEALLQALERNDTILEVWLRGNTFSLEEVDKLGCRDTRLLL
T6 sequence (P34972 whole entry): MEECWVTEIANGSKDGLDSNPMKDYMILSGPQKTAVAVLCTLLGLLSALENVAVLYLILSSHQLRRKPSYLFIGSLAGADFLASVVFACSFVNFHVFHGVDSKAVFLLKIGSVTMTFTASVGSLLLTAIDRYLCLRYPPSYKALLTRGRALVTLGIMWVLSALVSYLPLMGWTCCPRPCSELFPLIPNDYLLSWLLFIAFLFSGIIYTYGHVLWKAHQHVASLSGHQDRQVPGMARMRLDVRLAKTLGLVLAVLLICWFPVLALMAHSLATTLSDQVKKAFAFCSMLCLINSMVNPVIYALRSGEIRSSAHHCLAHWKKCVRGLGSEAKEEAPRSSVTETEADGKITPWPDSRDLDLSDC
T5 sequence (Q9Y2T6 whole entry): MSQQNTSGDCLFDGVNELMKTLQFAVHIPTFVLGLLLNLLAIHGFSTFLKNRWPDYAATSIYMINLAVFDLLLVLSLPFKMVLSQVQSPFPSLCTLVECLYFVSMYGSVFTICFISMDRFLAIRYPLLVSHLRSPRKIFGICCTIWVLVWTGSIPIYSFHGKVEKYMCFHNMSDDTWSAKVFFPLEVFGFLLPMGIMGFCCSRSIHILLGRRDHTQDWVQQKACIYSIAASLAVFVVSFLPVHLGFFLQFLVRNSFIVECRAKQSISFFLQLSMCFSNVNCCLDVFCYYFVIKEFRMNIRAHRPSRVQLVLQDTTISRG
T4 sequence (P63165 whole entry): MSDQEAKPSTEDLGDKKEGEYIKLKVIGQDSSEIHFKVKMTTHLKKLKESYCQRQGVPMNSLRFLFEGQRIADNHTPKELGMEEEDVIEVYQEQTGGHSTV
Luciferin 4-monooxygenase, sequence (P08659 whole entry): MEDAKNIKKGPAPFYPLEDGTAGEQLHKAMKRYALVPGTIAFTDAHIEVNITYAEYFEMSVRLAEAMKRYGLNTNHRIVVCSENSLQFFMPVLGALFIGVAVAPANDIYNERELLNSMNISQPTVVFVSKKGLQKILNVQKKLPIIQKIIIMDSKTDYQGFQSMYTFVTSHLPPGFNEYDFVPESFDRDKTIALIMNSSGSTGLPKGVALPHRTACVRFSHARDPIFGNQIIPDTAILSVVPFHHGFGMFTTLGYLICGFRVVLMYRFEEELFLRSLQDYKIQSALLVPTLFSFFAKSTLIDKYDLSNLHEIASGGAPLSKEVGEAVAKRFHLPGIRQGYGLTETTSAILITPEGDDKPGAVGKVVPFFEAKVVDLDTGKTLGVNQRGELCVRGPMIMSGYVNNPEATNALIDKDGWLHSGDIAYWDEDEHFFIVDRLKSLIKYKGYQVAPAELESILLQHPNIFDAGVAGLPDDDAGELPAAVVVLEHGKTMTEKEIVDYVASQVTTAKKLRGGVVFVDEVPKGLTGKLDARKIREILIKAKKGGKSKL
Genome polyprotein, sequence (P29990 2492-3391 limits assumed): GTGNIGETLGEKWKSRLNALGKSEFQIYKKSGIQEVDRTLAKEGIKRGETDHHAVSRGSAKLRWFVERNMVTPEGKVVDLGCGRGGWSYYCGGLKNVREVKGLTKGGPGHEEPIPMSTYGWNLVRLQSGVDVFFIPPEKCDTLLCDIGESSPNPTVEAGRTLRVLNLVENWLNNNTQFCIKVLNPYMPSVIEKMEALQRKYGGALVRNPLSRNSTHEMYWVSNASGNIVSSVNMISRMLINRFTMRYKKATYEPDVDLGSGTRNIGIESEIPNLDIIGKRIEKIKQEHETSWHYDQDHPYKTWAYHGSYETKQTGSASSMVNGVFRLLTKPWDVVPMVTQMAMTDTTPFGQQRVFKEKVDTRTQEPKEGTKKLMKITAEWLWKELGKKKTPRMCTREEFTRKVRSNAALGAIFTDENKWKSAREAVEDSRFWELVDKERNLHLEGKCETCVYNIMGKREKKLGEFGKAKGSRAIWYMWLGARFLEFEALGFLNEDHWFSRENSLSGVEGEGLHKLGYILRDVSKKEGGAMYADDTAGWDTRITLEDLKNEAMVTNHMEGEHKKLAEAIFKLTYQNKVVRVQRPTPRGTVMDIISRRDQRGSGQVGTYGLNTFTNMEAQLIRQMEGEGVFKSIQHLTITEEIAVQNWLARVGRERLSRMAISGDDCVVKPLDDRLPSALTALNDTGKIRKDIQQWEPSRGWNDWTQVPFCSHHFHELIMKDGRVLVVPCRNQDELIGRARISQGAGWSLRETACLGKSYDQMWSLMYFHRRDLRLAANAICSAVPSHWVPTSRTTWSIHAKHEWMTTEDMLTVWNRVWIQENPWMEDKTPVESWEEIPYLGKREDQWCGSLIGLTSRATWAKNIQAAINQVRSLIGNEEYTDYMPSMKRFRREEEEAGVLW

Cc1c(CCC(=O)O)c(=O)oc2c(C)c3occ(-c4ccc(Br)cc4)c3cc12
IC50 [1]: 11.1 µM (active) | IC50 [2]: 11.3 µM (active) | IC50 [3]: 69.2 µM (active) | CC50 (Vero): > 40 µM (active) | IC50 (Genome polyprotein): 33.2 µM (active) | IC50 [4]: 3.57 µM (active) | IC50 [5]: > 66.6 µM (inactive) | IC50 [6]: 12.6 µM (active) | AC50 [7]: 99.5 µM (active)

COc1ccc(OCC(O)CNc2ccc(Br)cc2)cc1 (stereo not drawn)
IC50 (Exodeoxyribonuclease V): > 119 µM (inactive) | IC50 [8]: > 119 µM (inactive)

CCC1CCCCN1S(=O)(=O)c1ccc(NC(=O)c2ccncc2)cc1 (stereo not drawn)
EC50 (HEK293 [9]): 5.51 µM (active) | IC50 (HEK293 [10]): 8.23 µM (active) | IC50 (HEK293 [11]): 19.3 µM (active) | EC50 [12]: > 112 µM (not active) | EC50 [13]: > 112 µM (not active) | EC50 [14]: > 20 µM (inactive) | IC50 (HEK293 [15]): 11.7 µM (inactive) | IC50 (HEK293 [16]): > 20 µM (inactive) | AC50 [17]: 3.43 µM (active) | AC50 [18]: 4.88 µM (active) | AC50 [19]: 16.5 µM (active)

COc1ccc(CCNc2oc(COc3ccccc3Cl)nc2C#N)cc1OC
EC50 (HEK293 [9]): 14 µM (active) | IC50 (HEK293 [10]): 8.53 µM (active) | IC50 (HEK293 [11]): 11.1 µM (active) | EC50 [14]: 16 µM (active) | IC50 (HEK293 [15]): 8.33 µM (active) | IC50 (HEK293 [16]): > 20 µM (inactive)

COC(=O)CSc1nc2ccc(NC(=O)c3ccccc3C(=O)N3CCOCC3)cc2s1
IC50 [20]: > 32 µM (inactive)

C/C(C=NNC(=O)c1nnn(-c2nonc2N)c1CN1CCC(C)CC1)=C/c1ccccc1
IC50 (Cannabinoid receptor 2 [21]): > 32 µM (inactive) | EC50 (Cannabinoid receptor 2 [22]): > 32 µM (inactive) | EC50 [23]: 681 nM (active) | IC50 (Cannabinoid receptor 1): > 32 µM (inactive)
